Here are results for nine molecules from patent publication US20240141017A1, “FLUORESCENT BIOSENSORS AND METHODS OF USE FOR DETECTING CELL SIGNALING EVENTS” (THE REGENTS OF THE UNIVERSITY OF MICHIGAN, priority 2021, published 2024).

One assay addresses T1, K-SPOTIT1.0 (Homo sapiens, UniProt P41145).
T1 construct: expressed in transfected cells; host or cells: HEK293T (lentiviral infection)
It counts as cell-based.

Another assay concerns M-SPOTIT2. Format: cell-based. Conditions: pH 11.
The target in a further assay is MOR (Homo sapiens, UniProt P35372). Particulars: previous studies; cited from earlier work.
Sequence of MOR (P35372 whole entry): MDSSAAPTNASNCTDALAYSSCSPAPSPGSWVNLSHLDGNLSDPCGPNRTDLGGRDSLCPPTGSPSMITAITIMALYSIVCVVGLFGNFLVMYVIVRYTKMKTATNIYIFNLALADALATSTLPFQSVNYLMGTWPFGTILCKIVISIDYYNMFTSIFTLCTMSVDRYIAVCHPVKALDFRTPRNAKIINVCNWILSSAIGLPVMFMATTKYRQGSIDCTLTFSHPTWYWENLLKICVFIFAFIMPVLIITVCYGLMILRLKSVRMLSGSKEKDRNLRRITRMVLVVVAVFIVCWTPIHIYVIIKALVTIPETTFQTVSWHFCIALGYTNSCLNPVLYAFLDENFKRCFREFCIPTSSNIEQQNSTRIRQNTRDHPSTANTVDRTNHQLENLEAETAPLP
Assay [1] deals with kappa-opioid receptor (KOR) as in K-SPOTIT1.0 (Homo sapiens (Human)) (UniProt P41145). The experiment in a line: cell-based or functional assay.

T1 sequence (P41145 with tags, fused parts or gaps): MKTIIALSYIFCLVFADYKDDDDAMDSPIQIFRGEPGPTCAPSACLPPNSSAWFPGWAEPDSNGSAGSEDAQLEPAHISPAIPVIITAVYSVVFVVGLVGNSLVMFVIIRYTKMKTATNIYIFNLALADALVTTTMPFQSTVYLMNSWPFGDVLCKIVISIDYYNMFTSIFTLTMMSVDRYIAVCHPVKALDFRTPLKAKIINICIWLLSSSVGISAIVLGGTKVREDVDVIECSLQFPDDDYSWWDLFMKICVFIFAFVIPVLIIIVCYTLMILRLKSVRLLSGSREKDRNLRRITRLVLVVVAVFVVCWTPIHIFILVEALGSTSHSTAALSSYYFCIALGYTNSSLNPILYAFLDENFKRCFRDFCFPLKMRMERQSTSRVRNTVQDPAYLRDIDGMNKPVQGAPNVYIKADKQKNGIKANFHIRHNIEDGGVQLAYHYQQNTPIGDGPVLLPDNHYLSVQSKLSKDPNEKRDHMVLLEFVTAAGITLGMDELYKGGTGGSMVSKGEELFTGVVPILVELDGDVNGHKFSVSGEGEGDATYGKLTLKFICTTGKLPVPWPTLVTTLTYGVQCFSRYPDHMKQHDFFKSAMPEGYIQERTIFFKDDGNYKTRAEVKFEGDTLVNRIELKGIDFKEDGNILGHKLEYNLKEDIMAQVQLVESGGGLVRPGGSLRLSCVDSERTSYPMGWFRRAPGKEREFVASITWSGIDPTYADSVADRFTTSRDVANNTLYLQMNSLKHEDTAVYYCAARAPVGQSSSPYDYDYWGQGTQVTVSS

With `Oc1ccc2c3c1O[C@H]1c4[nH]c5c(c4C[C@@]4(O)[C@@H](C2)N(CC2CC2)CC[C@]314)C[C@@]1(O)[C@H]2Cc3ccc(O)c4c3[C@@]1(CCN2CC1CC1)[C@H]5O4` [Nor-BNI, nor-binaltorphimine], on K-SPOTIT1.0, the “fluorescence before and after addition of KOR antagonist post fluorophore maturation” value is reported as “Comparable fluorescence”; the “fluorescence increase when antagonist added after initial 30-second agonist stimulation, vs Nor-BNI only cells” value was “No significant fluorescence increase”. As for `C=CCN1CC[C@]23c4c5ccc(O)c4O[C@H]2C(=O)CC[C@@]3(O)[C@H]1C5` [naloxone], in the assay with M-SPOTIT2, the SNR entry is on record as “much lower SNR”. Still for that read-out and setting: next, `COC(=O)[C@@H]1C[C@H](OC(C)=O)C(=O)[C@H]2[C@@]1(C)CC[C@H]1C(=O)O[C@H](c3ccoc3)C[C@]21C` [Sal A, Salvinorin A]: “much lower SNR”; `COc1ccc2c3c1O[C@H]1C(=O)CC[C@@]4(O)[C@@H](C2)N(C)CC[C@]314` [oxycodone]: “highest SNR”; `O=C(Cc1ccc(Cl)c(Cl)c1)N1CCCCC1CN1CCCC1` (stereo not drawn) [BRL52537]: “much lower SNR”.

Consider `CN1CC[C@]23c4c5ccc(O)c4O[C@H]2[C@@H](O)C=C[C@H]3[C@H]1C5` [morphine], for which the SNR entry in the assay with M-SPOTIT2 is given as “highest SNR”. For `CC(C)C[C@@H](NC(=O)[C@H](Cc1ccccc1)NC(=O)CNC(=O)[C@@H](C)NC(=O)[C@@H](N)Cc1ccc(O)cc1)C(=O)O` [DADLE], the “affinity for MOR” value on MOR is recorded as “weak affinity”. With `CN(C)C(=O)C(CCN1CCC(O)(c2ccc(Cl)cc2)CC1)(c1ccccc1)c1ccccc1` [loperamide], the SNR result with M-SPOTIT2 is recorded as “highest SNR”.

B1: Gαi protein mimic nanobody 39 (Nb39) (VHH)
VHH: QVQLVESGGGLVRPGGSLRLSCVDSERTSYPMGWFRRAPGKEREFVASITWSGIDPTYADSVADRFTTSRDVANNTLYLQMNSLKHEDTAVYYCAARAPVGQSSSPYDYDYWGQGTQVTVSS
In the case of B1, in assay [1], the cpGFP fluorescence of K-SPOTIT1.0 after a 30-second pulse of Sal A, then 24 hours of incubation came out at 4.2 fold; the cpGFP fluorescence of K-SPOTIT1.0 after longer Sal A incubation is 12 fold; the cpGFP fluorescence of K-SPOTIT1.0 in HEK293T cells, 24 hours with 10 µM Salvinorin A against no Sal A worked out at 10.9 fold.
